Experimental data reported in the supplement of paper PMC8671470.
± gives the standard deviation of the averaged measurements.

Legend:
HL-60 = assay: cell viability (% survival relative to DMSO control); higher = less cytotoxic; settings: 72 h
Procedure, shortened: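 For each screen, HL-60 cells in RPMI 1640 with 10% FBS carried either DMSO or 100 nM of one of three metabolic inhibitors while the full library was applied at five tenfold concentrations, 1–10,000 nM, in duplicate. Plates were 384-well and were kept 72 h at 37 °C, 5% CO2. Viability, measured by CellTiter-Glo, was normalised to wells with DMSO and with 10 μM proteasome inhibitor. Where area under the curve appears, it was fitted by four-parameter log-logistic models in drc and PharmacoGx.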

K-562 = assay: cell viability (% survival relative to DMSO control, bortezomib = 0%); higher = less cytotoxic; settings: 72 h
Procedure, shortened: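 Fifteen myeloid leukaemia cell lines (10 AML, 5 CML) were seeded at a density titrated to the linear growth range. They went into 384-well plates with compounds pre-printed at 1, 10, 100, 1000 or 10000 nM in duplicate. After 72 h at 37 °C with 5% CO2, viability was read by CellTiter-Glo luminescence. Values are percent survival, with vehicle set to 100% and a 10 µM positive control to 0%, averaged over the duplicates.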

[1] = 0.001 µM, co-treatment: AZD3965 100 nM
[2] = 0.001 µM, co-treatment: DMSO vehicle
[3] = 0.001 µM, co-treatment: GSK2194069 100 nM
[4] = 0.001 µM, co-treatment: pictilisib 100 nM
[5] = 0.01 µM, co-treatment: AZD3965 100 nM
[6] = 0.01 µM, co-treatment: DMSO vehicle
[7] = 0.01 µM, co-treatment: GSK2194069 100 nM
[8] = 0.01 µM, co-treatment: pictilisib 100 nM
[9] = 0.1 µM, co-treatment: AZD3965 100 nM
[10] = 0.1 µM, co-treatment: DMSO vehicle
[11] = 0.1 µM, co-treatment: GSK2194069 100 nM
[12] = 0.1 µM, co-treatment: pictilisib 100 nM
[13] = 1 µM, co-treatment: AZD3965 100 nM
[14] = 1 µM, co-treatment: DMSO vehicle
[15] = 1 µM, co-treatment: GSK2194069 100 nM
[16] = 1 µM, co-treatment: pictilisib 100 nM
[17] = 10 µM, co-treatment: AZD3965 100 nM
[18] = 10 µM, co-treatment: DMSO vehicle
[19] = 10 µM, co-treatment: GSK2194069 100 nM
[20] = 10 µM, co-treatment: pictilisib 100 nM

| SMILES | cell viability (HL-60; [1]) [%] | cell viability (HL-60; [2]) [%] | cell viability (HL-60; [3]) [%] | cell viability (HL-60; [4]) [%] | cell viability (HL-60; [5]) [%] | cell viability (HL-60; [6]) [%] | cell viability (HL-60; [7]) [%] | cell viability (HL-60; [8]) [%] | cell viability (HL-60; [9]) [%] | cell viability (HL-60; [10]) [%] | cell viability (HL-60; [11]) [%] | cell viability (HL-60; [12]) [%] | cell viability (HL-60; [13]) [%] | cell viability (HL-60; [14]) [%] | cell viability (HL-60; [15]) [%] | cell viability (HL-60; [16]) [%] | cell viability (HL-60; [17]) [%] | cell viability (HL-60; [18]) [%] | cell viability (HL-60; [19]) [%] | cell viability (HL-60; [20]) [%] | cell viability (K-562; 1 nM) [%] | cell viability (K-562; 10 nM) [%] | cell viability (K-562; 100 nM) [%] | cell viability (K-562; 1000 nM) [%] | cell viability (K-562; 10000 nM) [%] |
| --- | --- | --- | --- | --- | --- | --- | --- | --- | --- | --- | --- | --- | --- | --- | --- | --- | --- | --- | --- | --- | --- | --- | --- | --- | --- |
| CCN(CC)CCCC(C)Nc1ccnc2cc(Cl)ccc12 (stereo not given) [Chloroquine] | 102 ± 1.2 | 104 ± 3.9 | 102.2 ± 0.76 | 96.1 ± 2.8 | 87.5 ± 17 | 91.3 ± 17 | 77.2 ± 30 | 67.7 ± 45 | 107.4 ± 0.11 | 102.4 ± 0.66 | 98.3 ± 1.5 | 104 ± 2.7 | 104 ± 5.8 | 106 ± 4.4 | 102 ± 5.2 | 103.8 ± 0.31 | 97.5 ± 7.8 | 99.7 ± 1.6 | 89.7 ± 6.5 | 100 ± 22 | 101 | 111 | 105 | 103 | 86.3 |
| NC(=O)c1cccc(-c2cccc(OC(=O)NC3CCCCC3)c2)c1 [URB-597] | 101 ± 2.7 | 100 ± 5.5 | 103 ± 3.4 | 108 ± 3.8 | 105 ± 2.3 | 104 ± 6.3 | 113.65 ± 0.074 | 106.8 ± 0.33 | 101 ± 8.3 | 99.6 ± 1.3 | 98.1 ± 5.4 | 100 ± 8.5 | 103 ± 8.5 | 100 ± 1.9 | 101 ± 11 | 97.2 ± 8.2 | 103 ± 2 | 102 ± 2.3 | 104 ± 6.6 | 111 ± 5.6 | 102 | 98 | 100 | 90.6 | 100 |
| CCCc1cc(-c2nc(-c3ccc(C)cc3)cs2)ccn1 [Fatostatin] | 75.1 ± 31 | 92.9 ± 9.1 | 95.9 ± 4.6 | 90.3 ± 5.6 | 101.7 ± 0.39 | 96.1 ± 6.7 | 94.22 ± 0.22 | 97.8 ± 3.4 | 102 ± 2.5 | 101 ± 4.4 | 96.1 ± 8.5 | 105 ± 6.5 | 103 ± 7.9 | 98.5 ± 4.1 | 92.5 ± 13 | 96.7 ± 17 | 79.9 ± 18 | 94.39 ± 0.83 | 70.7 ± 7 | 63.5 ± 11 | 103 | 95.9 | 102 | 117 | 60.2 |
| O=C(O)C(=O)CBr [3-bromopyruvic acid] | 99.1 ± 3.7 | 99.1 ± 2 | 97.451 ± 0.0089 | 112 ± 3.5 | 101 ± 3.3 | 99.308 ± 0.03 | 96.2 ± 15 | 93.8 ± 6.9 | 99.2 ± 2.7 | 97.7 ± 1.7 | 98.9 ± 3.1 | 92.943 ± 0.068 | 98.3 ± 2.4 | 99.6 ± 2.4 | 103 ± 4 | 97.2 ± 8.2 | 95.8 ± 3.9 | 98 ± 1.7 | 98.5 ± 5.4 | 96.5 ± 13 | 91.3 | 97.6 | 92.3 | 103 | 106 |
| CCCCCCCCCCC[C@@H](C[C@@H]1OC(=O)[C@H]1CCCCCC)OC(=O)[C@H](CC(C)C)NC=O [Orlistat] | 98.6 ± 3.3 | 93.7 ± 0.7 | 94.4 ± 1.7 | 99.1 ± 2.1 | 99.5 ± 3.5 | 105 ± 2.1 | 96.4 ± 6.2 | 109 ± 6.4 | 102 ± 4.7 | 104 ± 3.7 | 109 ± 24 | 95.6 ± 3.8 | 94.9 ± 5.9 | 98.57 ± 0.82 | 94.7 ± 3.8 | 94.4 ± 7.5 | 100 ± 1.6 | 99.8 ± 2.4 | 77.7 ± 8.3 | 90.5 ± 10 | 118 | 85.1 | 88.2 | 103 | 103 |
| CCOP(=O)(OCC)C(=Cc1cc(C(C)(C)C)c(O)c(C(C)(C)C)c1)P(=O)(OCC)OCC | 95.9 ± 1.6 | 100 ± 8 | 101 ± 4.7 | 96.4 ± 4 | 101 ± 5.9 | 105 ± 2.3 | 104 ± 5 | 99.31 ± 0.66 | 109 ± 18 | 99.5 ± 2.6 | 102 ± 2 | 107 ± 8.3 | 101 ± 7 | 104 ± 4 | 102 ± 1.5 | 94.9 ± 2 | 98 ± 5.1 | 105 ± 1.3 | 94.5 ± 9 | 103 ± 7.4 | 91.1 | 90.4 | 118 | 101 | 90.1 |
| Nc1ccccc1C(=O)C[C@H](N)C(=O)O [L-Kynurenine] | 93.4 ± 7.9 | 92.2 ± 2.7 | 96.6 ± 7.5 | 88.1 ± 2.1 | 77.9 ± 30 | 96.4 ± 5 | 94.9 ± 2.8 | 95.5 ± 3.9 | 104 ± 9.4 | 100.5 ± 0.45 | 101 ± 1.3 | 103 ± 0.92 | 99.66 ± 0.67 | 99 ± 3.1 | 98.86 ± 0.35 | 94.5 ± 6.2 | 104 ± 2.6 | 106.8 ± 0.64 | 100 ± 3.5 | 105 ± 5.5 | 104 | 125 | 93.3 | 101 | 110 |
| O=C(O)c1cc(N=Nc2ccc(S(=O)(=O)Nc3ccccn3)cc2)ccc1O [Sulfasalazine] | 101.5 ± 0.52 | 101 ± 2.6 | 105 ± 4.2 | 107 ± 8.6 | 109 ± 3.5 | 101.7 ± 0.78 | 103 ± 3.4 | 103 ± 3.5 | 96 ± 2.6 | 98.9 ± 3 | 101 ± 1.2 | 93.57 ± 0.82 | 97.23 ± 0.95 | 100.2 ± 0.32 | 103 ± 1.9 | 92.3 ± 1.4 | 111 ± 8.6 | 104 ± 5.3 | 105 ± 5.2 | 112 ± 6.6 | 100 | 91.6 | 120 | 90.3 | 131 |
| Cc1coc2c1C(=O)C(=O)c1c-2ccc2c1CCCC2(C)C [Tanshinone IIA] | 106 ± 3.5 | 100.1 ± 0.14 | 106.9 ± 0.96 | 95.5 ± 8.2 | 106 ± 1.5 | 105 ± 4.4 | 110.7 ± 0.96 | 111 ± 14 | 104 ± 12 | 101 ± 0.13 | 105 ± 5.8 | 107 ± 13 | 101 ± 4.3 | 99.49 ± 0.73 | 101.4 ± 0.95 | 109 ± 13 | 103 ± 4.8 | 99 ± 6.2 | 97.5 ± 4 | 109 ± 13 | 98.1 | 104 | 104 | 109 | 81.3 |
